Laboratory results taken from ChEMBL document CHEMBL4483862, “Open-source discovery of chemical leads for next-generation chemoprotective antimalarials” (2018).

System: Plasmodium berghei
Test: Luciferase/luciferin-expressing antifolate-resistant parasites were used to infect a culture of HepG2 cells that were pre-incubated with compounds. Infected hepatocytes emit light due to the luciferase reaction. Assay results are presented as the percent inhibition of light emission compared to control. […]
Format: functional
Conditions: sporozoite; for IC90: read-out: LUCIFERASE INFECTION ASSAY - IC90

SMILES | IC90 | other results
O=C1C=CC(=O)N1c1cc(Cl)cc(Cl)c1 | > 13.6 µM | IC50 (FFLUC_HILL_SLOPE 11.6, FFLUC_R_SQUARED 0.448, PBLUC_HILL_SLOPE 9.84, PBLUC_R_SQUARED 0.0939, read-out: LUCIFERASE INFECTION ASSAY - IC50): > 13.6 µM
c1coc(-c2cn3c(-c4ccsc4)cnc3cn2)c1 | > 12.3 µM | IC50 (FFLUC_HILL_SLOPE 11.6, FFLUC_R_SQUARED 0.514, read-out: LUCIFERASE INFECTION ASSAY - IC50): > 12.3 µM
Cc1ccc2c(c1)C(=O)C(=O)N2CCN1CCCCC1 | > 12.1 µM | IC50 (FFLUC_HILL_SLOPE 11.5, FFLUC_R_SQUARED 0.31, read-out: LUCIFERASE INFECTION ASSAY - IC50): > 12.1 µM
CC(C)(C)c1ccc(OCc2nc(=O)cc(Nc3ccccc3Cl)[nH]2)cc1 | > 8.6 µM | IC50 (FFLUC_HILL_SLOPE 11.4, FFLUC_R_SQUARED 0.169, HEPG2TOX_HILL_SLOPE 0.949, HEPG2TOX_R_SQUARED 0.863, read-out: LUCIFERASE INFECTION ASSAY - IC50): > 8.6 µM
CCCCCCN(C(=O)CC(NC(=O)c1ccccc1)c1ccccc1)c1nc2ccccc2s1 (configuration not stated) | 9.24 µM | IC50 (FFLUC_HILL_SLOPE 11.5, FFLUC_R_SQUARED 0.371, PBLUC_HILL_SLOPE 30.2, PBLUC_R_SQUARED 0.437, read-out: LUCIFERASE INFECTION ASSAY - IC50): 8.6 µM
O=C(/C(=C/c1ccc(F)cc1)c1ccc(-c2ccccc2)cc1)N1CCN(c2ccccc2Cl)CC1 | > 10 µM | IC50 (FFLUC_HILL_SLOPE 11.6, FFLUC_R_SQUARED 0.516, HEPG2TOX_HILL_SLOPE 7.73, HEPG2TOX_R_SQUARED 0.736, read-out: LUCIFERASE INFECTION ASSAY - IC50): > 10 µM
N#C/C(=C\Nc1ncccn1)S(=O)(=O)c1ccccc1Cl | > 10.3 µM | IC50 (FFLUC_HILL_SLOPE 11.3, FFLUC_R_SQUARED 0.831, read-out: LUCIFERASE INFECTION ASSAY - IC50): > 10.3 µM
COc1ccc2c(c1)/C(=N/NC(=O)c1ccc(CSc3ccc(Cl)cc3)cc1)C(=O)N2 | > 10 µM | IC50 (FFLUC_HILL_SLOPE 11.4, FFLUC_R_SQUARED 0.124, PBLUC_HILL_SLOPE 3.43, PBLUC_R_SQUARED 0.087, read-out: LUCIFERASE INFECTION ASSAY - IC50): 6.03 µM
CSc1ncccc1C(=O)Nc1nc(-c2ccc3ccccc3c2)cs1 | > 10 µM | IC50 (FFLUC_HILL_SLOPE 11.5, FFLUC_R_SQUARED 0.449, read-out: LUCIFERASE INFECTION ASSAY - IC50): > 10 µM
CCNC(=O)C(C)Nc1ncnc2scc(-c3ccc(OC)cc3)c12 (configuration not stated) | 9.59 µM | IC50 (FFLUC_HILL_SLOPE 11.3, FFLUC_R_SQUARED 0.625, HEPG2TOX_HILL_SLOPE 3.17, HEPG2TOX_R_SQUARED 0.973, PBLUC_HILL_SLOPE 4.87, PBLUC_R_SQUARED 0.647, read-out: LUCIFERASE INFECTION ASSAY - IC50): 6.11 µM
C=CCOc1ccccc1CN(c1ccc2c(c1)OCCO2)S(=O)(=O)c1cccs1 | > 10 µM | IC50 (FFLUC_HILL_SLOPE 11.5, FFLUC_R_SQUARED 0.0724, read-out: LUCIFERASE INFECTION ASSAY - IC50): > 10 µM
Cc1cnc(NC(=O)Nc2cccc(C(F)(F)F)c2)s1 | 3.82 µM | IC50 (FFLUC_HILL_SLOPE 11.7, FFLUC_R_SQUARED 0.144, HEPG2TOX_HILL_SLOPE 3.17, HEPG2TOX_R_SQUARED 0.951, PBLUC_HILL_SLOPE 13.6, PBLUC_R_SQUARED 0.664, read-out: LUCIFERASE INFECTION ASSAY - IC50): 3.25 µM
CC(C)c1ccc(-c2csc(NC(=O)CCn3cnc([N+](=O)[O-])c3)n2)c(C(C)C)c1 | 8.21 µM | IC50 (FFLUC_HILL_SLOPE 11.6, FFLUC_R_SQUARED 0.59, HEPG2TOX_HILL_SLOPE 11.1, HEPG2TOX_R_SQUARED 0.951, PBLUC_HILL_SLOPE 3.89, PBLUC_R_SQUARED 0.436, read-out: LUCIFERASE INFECTION ASSAY - IC50): 4.67 µM
CCC(=O)c1cc(Br)ccc1OC(=O)Cc1coc2cc(C)c(C)cc12 | 8.33 µM | IC50 (FFLUC_HILL_SLOPE 11.7, FFLUC_R_SQUARED 0.164, HEPG2TOX_HILL_SLOPE 5.81, HEPG2TOX_R_SQUARED 0.234, PBLUC_HILL_SLOPE 5.23, PBLUC_R_SQUARED 0.568, read-out: LUCIFERASE INFECTION ASSAY - IC50): 5.48 µM
Cc1nnc(S(=O)(=O)CC(=O)N2CCc3ccccc32)n1C | > 10 µM | IC50 (FFLUC_HILL_SLOPE 11.6, FFLUC_R_SQUARED 0.688, read-out: LUCIFERASE INFECTION ASSAY - IC50): > 10 µM
COc1ccccc1/C=C(/C(=O)OC(C(=O)c1c[nH]c2ccccc12)c1ccccc1)c1ccccc1 (configuration not stated) | > 10 µM | IC50 (FFLUC_HILL_SLOPE 11.3, FFLUC_R_SQUARED 0.353, PBLUC_HILL_SLOPE 1.04, PBLUC_R_SQUARED 0.705, read-out: LUCIFERASE INFECTION ASSAY - IC50): 3.6 µM

SMILES | IC90 | other results
Cc1cc(C)c(C2C3=C(Nc4c2c(C)nn4-c2ccccn2)c2ccccc2C3=O)c(C)c1 (configuration not stated) | > 10 µM | IC50 (FFLUC_HILL_SLOPE 11.5, FFLUC_R_SQUARED 0.374, PBLUC_HILL_SLOPE 1.59, PBLUC_R_SQUARED 0.668, read-out: LUCIFERASE INFECTION ASSAY - IC50): 5.07 µM
O=C(Nc1cccc(Cl)c1)C1CCN(c2ccc(C(F)(F)F)cn2)CC1 | > 8.6 µM | IC50 (FFLUC_HILL_SLOPE 11.3, FFLUC_R_SQUARED 0.5, read-out: LUCIFERASE INFECTION ASSAY - IC50): > 8.6 µM
CCOc1ccc(C(C)=O)cc1Cn1cnc2c(cnn2-c2ccccc2)c1=O | > 10 µM | IC50 (FFLUC_HILL_SLOPE 11.6, FFLUC_R_SQUARED 0.166, HEPG2TOX_HILL_SLOPE 1.94, HEPG2TOX_R_SQUARED 0.895, read-out: LUCIFERASE INFECTION ASSAY - IC50): > 10 µM
CN(C)S(=O)(=O)c1ccc(OCCOC(=O)c2c3c(nn2-c2ccccc2)CCCC3)cc1 | > 10 µM | IC50 (FFLUC_HILL_SLOPE 11.3, FFLUC_R_SQUARED 0.368, read-out: LUCIFERASE INFECTION ASSAY - IC50): > 10 µM
O=C(Cc1coc2ccc3ccccc3c12)Nc1cc(Cl)ccc1N1CCOCC1 | > 10 µM | IC50 (FFLUC_HILL_SLOPE 11.6, FFLUC_R_SQUARED 0.426, read-out: LUCIFERASE INFECTION ASSAY - IC50): > 10 µM
CC(C)(C)c1cc(-c2cc(C(F)(F)F)[nH]n2)c2c(c1)C(C)(C)CC2 | > 9.81 µM | IC50 (FFLUC_HILL_SLOPE 11.7, FFLUC_R_SQUARED 0.064, read-out: LUCIFERASE INFECTION ASSAY - IC50): > 9.81 µM
Cc1ccc2nc(NC(=O)c3ccc(Cl)cc3Cl)c(C(=O)NC3CCCC3)n2c1 | 1.13 µM | IC50 (FFLUC_HILL_SLOPE 11.5, FFLUC_R_SQUARED 0.0941, HEPG2TOX_HILL_SLOPE 0.896, HEPG2TOX_R_SQUARED 0.951, PBLUC_HILL_SLOPE 3.11, PBLUC_R_SQUARED 0.82, read-out: LUCIFERASE INFECTION ASSAY - IC50): 0.559 µM
CSc1nnc(Sc2ncc([N+](=O)[O-])s2)s1 | > 11.3 µM | IC50 (FFLUC_HILL_SLOPE 11.6, FFLUC_R_SQUARED 0.224, HEPG2TOX_HILL_SLOPE 8.93, HEPG2TOX_R_SQUARED 0.0924, PBLUC_HILL_SLOPE 12.6, PBLUC_R_SQUARED 0.322, read-out: LUCIFERASE INFECTION ASSAY - IC50): 10 µM
CCOc1ccc(S(=O)(=O)Nc2cc(Sc3ccc(C)cc3)c(O)c3ccccc23)cc1 | > 10 µM | IC50 (FFLUC_HILL_SLOPE 11.6, FFLUC_R_SQUARED 0.0239, HEPG2TOX_HILL_SLOPE 1.78, HEPG2TOX_R_SQUARED 0.0588, PBLUC_HILL_SLOPE 15.2, PBLUC_R_SQUARED 0.324, read-out: LUCIFERASE INFECTION ASSAY - IC50): 9.98 µM
CCCc1c(NC(=O)Nc2cc(C(F)(F)F)cc(C(F)(F)F)c2)cnn1-c1ccccc1 | 3.79 µM | IC50 (FFLUC_HILL_SLOPE 11.3, FFLUC_R_SQUARED 0.657, HEPG2TOX_HILL_SLOPE 5.77, HEPG2TOX_R_SQUARED 0.944, PBLUC_HILL_SLOPE 9.21, PBLUC_R_SQUARED 0.384, read-out: LUCIFERASE INFECTION ASSAY - IC50): 2.99 µM
Cc1nc(SC(C)C(=O)c2c[nH]c3ccccc23)c2c(=O)n(C)c(=O)n(CC(C)C)c2n1 (configuration not stated) | > 10 µM | IC50 (FFLUC_HILL_SLOPE 11.3, FFLUC_R_SQUARED 0.363, PBLUC_HILL_SLOPE 2.42, PBLUC_R_SQUARED 0.455, read-out: LUCIFERASE INFECTION ASSAY - IC50): 7.35 µM
CCN(CC)S(=O)(=O)c1cccc(-c2nnc(SCC(=O)N3CCC(c4ccccc4)=N3)n2Cc2ccccc2)c1 | > 10 µM | IC50 (FFLUC_HILL_SLOPE 11.4, FFLUC_R_SQUARED 0.285, PBLUC_HILL_SLOPE 0.735, PBLUC_R_SQUARED 0.117, read-out: LUCIFERASE INFECTION ASSAY - IC50): > 10 µM
CCN(Cc1ccccc1)c1nc2ccccc2nc1NS(=O)(=O)c1cc([N+](=O)[O-])ccc1C | > 10 µM | IC50 (FFLUC_HILL_SLOPE 11.4, FFLUC_R_SQUARED 0.293, HEPG2TOX_HILL_SLOPE 1.92, HEPG2TOX_R_SQUARED 0.959, PBLUC_HILL_SLOPE 2.98, PBLUC_R_SQUARED 0.638, read-out: LUCIFERASE INFECTION ASSAY - IC50): 7.87 µM
O=C(Nc1ncc(Cc2cccc(C(F)(F)F)c2)s1)c1ccc(-n2ccnc2)nc1 | 7.33 µM | IC50 (FFLUC_HILL_SLOPE 11.4, FFLUC_R_SQUARED 0.309, HEPG2TOX_HILL_SLOPE 1.14, HEPG2TOX_R_SQUARED 0.957, PBLUC_HILL_SLOPE 2.81, PBLUC_R_SQUARED 0.544, read-out: LUCIFERASE INFECTION ASSAY - IC50): 3.35 µM
CCN(CC)c1nc(N)c2c(N)nc3c(c2c1C#N)CC(=O)N3c1cc(Cl)cc(Cl)c1 | > 10 µM | IC50 (FFLUC_HILL_SLOPE 11.5, FFLUC_R_SQUARED 0.738, PBLUC_HILL_SLOPE 1.44, PBLUC_R_SQUARED 0.624, read-out: LUCIFERASE INFECTION ASSAY - IC50): 4.18 µM
